Patent US20090264384A1, “INDOLE, BENZIMIDAZOLE, AND BENZOLACTAM BORONIC ACID COMPOUNDS, ANALOGS THEREOF AND METHODS OF USE THEREOF” (Nuada, Inc., priority 2004, published 2009)
Like-named read-outs stand apart in the source and are kept apart here. Values belong to the compound of their own block, whether it stands above or below them.

Tests used:
[1] = Various In Vitro Cell Biology Assays (Example 41, Tables 23-26); type: cell-based; conditions: for inhibition at 3 µM: PBMC, read-out: % Inhibition of Control Values; for IC50: TNF-α secretion (h) (PBMC); for cytotoxicity at 24 h: human, Cell viability (h) (PBMC/24 h), MTT
Description: In each experiment, the respective reference compound was tested concurrently with the test compounds in order to assess the assay suitability. It was tested at several concentrations (for IC50 value determination).
The test compounds were assayed at 3×10^−6 M.
Results. The results are expressed as a percent of control values and as a percent inhibition of control values obtained in the presence of the test compounds.
The IC50 values (concentration causing a half-maximal inhibition of control values) and Hill coefficients (nH) were determined by non-linear regression analysis of the inhibition curves using Hill equation curve fitting, a summary of the data is shown in Table 26. The IC50 value for each reference compound is indicated was determined (data not shown) and was within accepted limits of the historic average ±0.5 log units.

[2] = tested on: chronic colitis provoked by trinitrobenzene sulphonic acid (TNBS); assay: Rat model of chronic colitis provoked by TNBS over 14 days, treatment from Day 1; type: in vivo; conditions: for macroscopic Damage Score / reduction in colon weight / reduction in colonic MPO activity / reduction in colonic TNF-α levels / reduction in colonic lesion area (% of the total area measured): Day 14; for reduction in colon weight / reduction in colonic MPO activity / reduction in colonic TNF-α levels / reduction in colonic lesion area (% of the total area measured) / attenuation of TNBS-induced fall in body weight (% change of body weight at Day −1): vs CMC group; for attenuation of TNBS-induced fall in body weight (% change of body weight at Day −1): over 14 days
Excerpt: In the chronic model of colitis, assessment of the colonic inflammation is made 14 days or longer, after the intracolonic challenge with TNBS (Boughton-Smith et al, 1988a, 1988b; Wallace et al, 1989; Rachmilewitz et al, 1989; Wallace and Keenan, 1990; Ameho et al, 1987; Sans et al, 1999; Sun et al, 2001; Maric et al, 2003; Moreels et al, 2004; Gonzalez et al, 2004). This model allows treatment with experimental agents to commence following the establishment of the colonic injury, typically 24 hours after the TNBS challenge (Galvez et al, 2000, Villegas, 2003, Gonzalez et al, 2004). The model should therefore identify the ability of the experimental compounds to accelerate the diminution of the inflammatory response and to promote healing of the colonic lesions. This model thus has relevance additional to the acute model, as the clinical correlate is the therapeutic intervention in patients with existing IBD not in remission or with flare-up, to reduce the crisis. This contrasts with the acute TNBS model where the compounds are administered one or two days prior to challenge, the clinical correlate being the use of prophylactic therapy to prevent flare-up and maintain remission in IBD patients.
In this current study, the low intracolonic challenge concentration of TNBS used in the acute studies was also used for the chronic study over a 14 day period. This concentration and timing was based on the findings from pilot studies where a range of concentrations of TNBS and treatment conditions were evaluated over a 14 day period. […].
The methods and protocol used were substantially similar to those in Example 39-40, with some differences described below.
TNBS Challenge. Male Wistar rats (average body weight, 210 g) were randomised into groups before commencement of the study. In all groups, including the non-challenged and non-treated absolute control group, food was withdrawn for 12 h before TNBS administration (i.e. overnight on Day −1), but the rats were allowed free access to drinking water.
On the morning of the day of challenge (Day 0, between 9.00 and 1 1.00 a.m.), the rats were transiently anaesthetised with ether and the TNBS solution (10 mg in 0.25 ml of 50% ethanol) was instilled approximately 6-8 cm into the colon using a soft plastic catheter inserted in the rat rectum. The rats were allowed to recover with free access to food and drinking water. At the end of the experiment, on the morning of Day 14, between 9.00 and 11.00), the colon was dissected, and the distal 8 cm photographed and immediately processed or stored appropriately for subsequent analyses.
The following primary parameters were measured in the study: macroscopic scoring of distal 8 cm of colon; myeloperoxidase levels in segments of distal 8 cm of colon; TNF-α levels in segments of distal 8 cm of colon.
In addition, the weight of the standard colonic segment was assessed as an indirect and non-specific marker of oedema. The body weight of the animals was also determined each evening of the study, starting on Day-1, and also on the morning of Day 14. The data is shown graphically as the % change from the weight on Day-1, prior to challenge.
Treatments. The TNBS challenged groups for study were: (a) Vehicle control 0.5% carboxy methyl cellulose (CMC) p.o., twice daily from Day; (b) CCI-7506 25 mg/kg, p.o., twice daily from Day 1 (50 mg/kg/day total); (c) CCI-7506 50 mg/kg, p.o., twice daily from Day 1 (100 mg/kg/day total); (d) CCI-7507 12.5 mg/kg, p.o., twice daily from Day 1 (25 mg/kg/day total); (e) CCI-7507 25 mg/kg, p.o., twice daily from Day 1(50 mg/kg/day total); […]; (g) Infliximab 3 mg/kg, single slow i.v. injection, on Day 1 and Day7.
The experimental compounds that were administered orally were given twice a day from Day 1, i.e. 24 h following TNBS administration, for the remainder of the 14 day experimental period. Infliximab was administered by slow i.v. injection of Day 1 and on Day 7. […]

[3] = 24 h, IL-1 □ secretion (h) (PBMC), LPS 1 μg/ml, 24 h, 3×10^−6 M
[4] = 48 h, IL-4 secretion (h) (PBMC), ConA 20 μg/ml, 48 h, 3×10^−6 M
[5] = 24 h, IL-6 secretion (h) (PBMC), LPS 1 μg/ml, 24 h, 3×10^−6 M
[6] = 24 h, IFN-γ secretion (h) (PBMC), PHA 2 μg/ml, 24 h, 3×10^−6 M
[7] = 48 h, IL-10 secretion (h) (PBMC), PHA 3 μg/ml, 48 h, 3×10^−6 M
[8] = 48 h, IL-2 secretion (h) (PBMC), PHA 20 μg/ml, 48 h, 3×10^−6 M

SMILES: OB(O)CCCCCn1c(-c2cscn2)nc2ccccc21 [drawing 75]
- inhibition at 3 µM [1, 3]: -67%

SMILES: C[C@@H]1CC2C3CCC4=CC(=O)C=CC4(C)C3(F)[C@@H](O)CC2(C)C1(O)C(=O)CO (some centres unmarked) [drawing 88]
- inhibition at 3 µM [1, 4]: 118%

SMILES: COc1ccc(-c2nc3ccccc3n2CCCCCB(O)O)cc1 [drawing 110]
- IC50 ([1]; LPS 1 μg/ml, 24 h): 200 nM

SMILES: OB(O)CCCCn1c(C(F)(F)F)nc2ccccc21 [drawing 91]
- inhibition at 3 µM [1, 5]: -26%

SMILES: OB(O)CCCCCn1c(-c2cscn2)nc2ccccc21 [drawing 69]
- inhibition at 3 µM [1, 6]: 21%

SMILES: N#Cc1ccc2c(ccn2CCCCCB(O)O)c1 [CCI-7506]
- macroscopic Damage Score ([2]; 50 mg/kg/day p.o. from Day 1): reduced the damage score
- reduction in colon weight ([2]; 50 mg/kg/day p.o. from Day 1): caused a significant reduction in the colon weight
- reduction in colonic MPO activity ([2]; 50 mg/kg/day p.o. from Day 1): caused a significant fall in the elevated MPO activity
- reduction in colonic TNF-α levels ([2]; 50 mg/kg/day p.o. from Day 1): no significant effect on the colonic TNF-α levels
- reduction in colonic lesion area (% of the total area measured) ([2]; 50 mg/kg/day p.o. from Day 1): statistically significant for both doses
- attenuation of TNBS-induced fall in body weight (% change of body weight at Day −1) ([2]; 50 mg/kg/day p.o. in divided doses from Day 1): significantly different from those in the challenged CMC control group on Days 2 to 10 and also on Days 13 and 14
- macroscopic Damage Score ([2]; 100 mg/kg/day p.o. from Day 1): reduced the damage score
- reduction in colon weight ([2]; 100 mg/kg/day p.o. from Day 1): caused a significant reduction in the colon weight
- reduction in colonic MPO activity ([2]; 100 mg/kg/day p.o. from Day 1): caused a significant fall in the elevated MPO activity
- reduction in colonic TNF-α levels ([2]; 100 mg/kg/day p.o. from Day 1): did achieve significance
- reduction in colonic lesion area (% of the total area measured) ([2]; 100 mg/kg/day p.o. from Day 1): statistically significant for both doses
- attenuation of TNBS-induced fall in body weight (% change of body weight at Day −1) ([2]; 100 mg/kg/day p.o. in divided doses from Day 1): significantly different from the CMC group on Days 2, 3 and 4

SMILES: N#Cc1ncnc2c1ncn2CCCCCB(O)O [drawing 79]
- inhibition at 3 µM [1, 3]: -66%

SMILES: Nc1nc(Cl)c2ncn(CCCCCB(O)O)c2n1 [drawing 108]
- cytotoxicity at 24 h ([1]; 3×10^−6 M): 6%

SMILES: OB(O)CCCCn1c(C(F)(F)F)nc2ccccc21 [drawing 96]
- inhibition at 3 µM [1, 7]: 17%

SMILES: N#Cc1ncnc2c1ncn2CCCCCB(O)O [drawing 74]
- inhibition at 3 µM [1, 6]: 14%

- IC50 ([1]; LPS 1 μg/ml, 24 h): 36 nM
SMILES: C[C@@H]1CC2C3CCC4=CC(=O)C=CC4(C)C3(F)[C@@H](O)CC2(C)C1(O)C(=O)CO (some centres unmarked) [drawing 114]

SMILES: C[C@@H]1CC2C3CCC4=CC(=O)C=CC4(C)C3(F)[C@@H](O)CC2(C)C1(O)C(=O)CO (some centres unmarked) [drawing 92]
- % Inhibition of Control Values ([1]; IL-6 secretion (h) (PBMC), LPS 1 μg/ml, 24 h, 3×10^−6 M): 57%

SMILES: OB(O)CCCCCn1c(-c2cscn2)nc2ccccc21 [drawing 81]
- inhibition at 3 µM [1, 8]: 56%

SMILES: N#Cc1ccc2c(ccn2CCCCCB(O)O)c1 [drawing 100]
- inhibition at 3 µM ([1]; 24 h, IL-8 secretion (h) (PBMC), LPS 1 μg/ml, 24 h, 3×10^−6 M): -63%

SMILES: C[C@@H]1CC2C3CCC4=CC(=O)C=CC4(C)C3(F)[C@@H](O)CC2(C)C1(O)C(=O)CO (some centres unmarked) [drawing 83]
- inhibition at 3 µM [1, 8]: 18%

SMILES: C[C@@H]1CC2C3CCC4=CC(=O)C=CC4(C)C3(F)[C@@H](O)CC2(C)C1(O)C(=O)CO (some centres unmarked) [drawing 107]
- cytotoxicity at 24 h ([1]; 3×10^−6 M): 6%

SMILES: N#Cc1ncnc2c1ncn2CCCCCB(O)O [CCI-7048]
- inhibition at 3 µM [1, 8]: 23%
- inhibition at 3 µM [1, 4]: -45%

SMILES: N#Cc1ncnc2c1ncn2CCCCCB(O)O [drawing 94]
- inhibition at 3 µM [1, 5]: -30%

SMILES: N#Cc1ccc2c(ccn2CCCCCB(O)O)c1 [drawing 112]
- IC50 ([1]; LPS 1 μg/ml, 24 h): 1500 nM

SMILES: C[C@@H]1CC2C3CCC4=CC(=O)C=CC4(C)C3(F)[C@@H](O)CC2(C)C1(O)C(=O)CO (some centres unmarked) [drawing 97]
- inhibition at 3 µM [1, 7]: 62%
